Experimental data as given in ChEMBL document CHEMBL4312026, “Synthesis, biological and molecular dynamics investigations with a series of triazolopyrimidine/triazole-based benzenesulfonamides as novel carbonic anhydrase inhibitors” (Eur J Med Chem, 2020).

Columns and labels:
Carbonic anhydrase 1 [1] = biological target: T1, Carbonic anhydrase 1 (Homo sapiens, UniProt P00915); experiment: Inhibition of recombinant human carbonic anhydrase-1 incubated for 15 mins by stopped flow CO2 hydrase assay
Carbonic anhydrase 2 [2] = biological target: T2, Carbonic anhydrase 2 (Homo sapiens, UniProt P00918); experiment: Inhibition of recombinant human carbonic anhydrase-2 incubated for 15 mins by stopped flow CO2 hydrase assay
Carbonic anhydrase 9 [3] = biological target: T3, Carbonic anhydrase 9 (Homo sapiens, UniProt Q16790); experiment: Inhibition of recombinant human carbonic anhydrase-9 incubated for 15 mins by stopped flow CO2 hydrase assay
Carbonic anhydrase 1 [4] = biological target: T1, Carbonic anhydrase 1; experiment: Inhibition of recombinant human carbonic anhydrase-1 at 0.01 uM after 15 mins by stopped flow CO2 hydrase assay (reference value: 0%)
Carbonic anhydrase 1 [5] = biological target: T1, Carbonic anhydrase 1; experiment: Inhibition of recombinant human carbonic anhydrase-1 at 0.1 uM after 15 mins by stopped flow CO2 hydrase assay (reference value: 0%)
Carbonic anhydrase 1 [6] = biological target: T1, Carbonic anhydrase 1; experiment: Inhibition of recombinant human carbonic anhydrase-1 at 1 uM after 15 mins by stopped flow CO2 hydrase assay (reference value: 0%)
Carbonic anhydrase 1 [7] = biological target: T1, Carbonic anhydrase 1; experiment: Inhibition of recombinant human carbonic anhydrase-1 at 10 uM after 15 mins by stopped flow CO2 hydrase assay (reference value: 0%)
Carbonic anhydrase 2 [8] = biological target: T2, Carbonic anhydrase 2; experiment: Inhibition of recombinant human carbonic anhydrase-2 at 0.01 uM after 15 mins by stopped flow CO2 hydrase assay (reference value: 0%)
Carbonic anhydrase 2 [9] = biological target: T2, Carbonic anhydrase 2; experiment: Inhibition of recombinant human carbonic anhydrase-2 at 0.1 uM after 15 mins by stopped flow CO2 hydrase assay (reference value: 0%)
Carbonic anhydrase 2 [10] = biological target: T2, Carbonic anhydrase 2; experiment: Inhibition of recombinant human carbonic anhydrase-2 at 1 uM after 15 mins by stopped flow CO2 hydrase assay (reference value: 0%)
Carbonic anhydrase 2 [11] = biological target: T2, Carbonic anhydrase 2; experiment: Inhibition of recombinant human carbonic anhydrase-2 at 10 uM after 15 mins by stopped flow CO2 hydrase assay (reference value: 0%)
Carbonic anhydrase 9 [12] = biological target: T3, Carbonic anhydrase 9; experiment: Inhibition of recombinant human carbonic anhydrase-9 at 0.1 nM after 15 mins by stopped flow CO2 hydrase assay (reference value: 0%)
Carbonic anhydrase 9 [13] = biological target: T3, Carbonic anhydrase 9; conditions: at 1 nM
Description: Inhibition of recombinant human carbonic anhydrase-9 at 1 nM after 15 mins by stopped flow CO2 hydrase assay (Rvb = 0%)

Carbonic anhydrase 9 [14] = biological target: T3, Carbonic anhydrase 9; conditions: at 0.01 µM
Description: Inhibition of recombinant human carbonic anhydrase-9 at 0.01 uM after 15 mins by stopped flow CO2 hydrase assay (Rvb = 0%)

Carbonic anhydrase 9 [15] = biological target: T3, Carbonic anhydrase 9; conditions: at 0.1 µM
Description: Inhibition of recombinant human carbonic anhydrase-9 at 0.1 uM after 15 mins by stopped flow CO2 hydrase assay (Rvb = 0%)

T1 sequence (P00915 whole entry): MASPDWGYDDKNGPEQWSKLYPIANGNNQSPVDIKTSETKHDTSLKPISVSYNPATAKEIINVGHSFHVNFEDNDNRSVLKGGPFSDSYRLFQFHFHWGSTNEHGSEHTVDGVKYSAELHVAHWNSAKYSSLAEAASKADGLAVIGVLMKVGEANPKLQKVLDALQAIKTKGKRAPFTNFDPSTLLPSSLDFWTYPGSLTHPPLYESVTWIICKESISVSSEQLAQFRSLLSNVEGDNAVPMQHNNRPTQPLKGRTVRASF

Structure (SMILES)	Ki (Carbonic anhydrase 1 [1]) [nM]	Ki (Carbonic anhydrase 2 [2]) [nM]	Ki (Carbonic anhydrase 9 [3]) [nM]	further results
Nc1nc(C(=O)N/N=C/c2ccc(N3CCCCC3)cc2)nn1-c1ccc(S(N)(=O)=O)cc1	825	95.4	33	–
C/C(=N\NC(=O)c1nc(N)n(-c2ccc(S(N)(=O)=O)cc2)n1)c1ccccc1	633	8.9	41.3	–
COc1ccc(/C=N/NC(=O)c2nn(-c3ccc(S(N)(=O)=O)cc3)c3nc(C)cc(=O)n23)cc1	2380	325	63.2	–
C/C(=N\NC(=O)c1nc(N)n(-c2ccc(S(N)(=O)=O)cc2)n1)c1ccc(N2CCOCC2)cc1	793	53.9	31.7	–
Cc1cc(=O)n2c(C(=O)NN)nn(-c3ccc(S(N)(=O)=O)cc3)c2n1	1680	74.7	45.4	–
Nc1nc(C(=O)N/N=C/c2ccc(F)cc2)nn1-c1ccc(S(N)(=O)=O)cc1	495	65.2	31.5	–
CCOC(=O)c1nn(-c2ccc(S(N)(=O)=O)cc2)c2nc(C)cc(=O)n12	698	85.6	35.9	–
Nc1nc(C(=O)N/N=C/c2ccccc2)nn1-c1ccc(S(N)(=O)=O)cc1	771	86.4	41.1	–
NNC(=O)c1nc(N)n(-c2ccc(S(N)(=O)=O)cc2)n1	523	19.9	22.8	–
Nc1nc(NC(=O)Nc2ccc(Cl)cc2)nn1-c1ccc(S(N)(=O)=O)cc1	403	9.5	43.3	–
Nc1nc(C(=O)NNC(=S)Nc2ccccc2)nn1-c1ccc(S(N)(=O)=O)cc1	368	9.7	40.2	–
Cc1cc(=O)n2c(C(=O)N/N=C/c3ccncc3)nn(-c3ccc(S(N)(=O)=O)cc3)c2n1	2480	456	24.6	–
Nc1nc(C(=O)N/N=C/c2ccc(Cl)cc2)nn1-c1ccc(S(N)(=O)=O)cc1	703	6.9	73.2	–
Nc1nc(C(=O)N/N=C/c2ccc([N+](=O)[O-])cc2)nn1-c1ccc(S(N)(=O)=O)cc1	1540	24.7	34.4	–
Cc1cc(=O)n2c(C(=O)N/N=C/c3ccccn3)nn(-c3ccc(S(N)(=O)=O)cc3)c2n1	3720	537	47.9	–
Cc1cc(=O)n2c(C(=O)N/N=C/c3ccc(N4CCN(C)CC4)cc3)nn(-c3ccc(S(N)(=O)=O)cc3)c2n1	4950	838	85	–
Nc1nc(NC(=O)Nc2ccc(S(N)(=O)=O)cc2)nn1-c1ccc(S(N)(=O)=O)cc1	677	78.7	28.6	–

Now those with a lower Ki (Carbonic anhydrase 9 [3]), led by results:

Ki (Carbonic anhydrase 1 [1]) [nM]	Ki (Carbonic anhydrase 2 [2]) [nM]	Ki (Carbonic anhydrase 9 [3]) [nM]	Structure (SMILES)	further results
–	–	9.7	CC(=O)OC[C@@H]1O[C@@H](OCc2cn(-c3ccc(S(N)(=O)=O)cc3)nn2)[C@@H](OC(C)=O)[C@H](OC(C)=O)[C@H]1OC(C)=O	–
–	–	0.16	COC(=O)c1nn(-c2ccc(S(N)(=O)=O)cc2)c2nc3cc(-c4cccs4)cc(-c4ccc([N+](=O)[O-])cc4)c3c(=O)n12	–
537	10.9	16.4	Nc1nc(C(=O)NNC(=O)Nc2ccc(Cl)cc2)nn1-c1ccc(S(N)(=O)=O)cc1	–
313	42.8	3.9	Cc1ccc(NC(=O)Nc2nc(N)n(-c3ccc(S(N)(=O)=O)cc3)n2)cc1	–
94.4	65.5	7.8	Nc1nc(NC(=O)Nc2ccc(F)cc2)nn1-c1ccc(S(N)(=O)=O)cc1	–
477	74.2	6.6	Nc1nc(C(=O)N/N=C/c2cccnc2)nn1-c1ccc(S(N)(=O)=O)cc1	–
507	9.6	15.3	Nc1nc(NC(=O)Nc2ccc(C(=O)O)cc2)nn1-c1ccc(S(N)(=O)=O)cc1	–
695	127	3.3	COc1ccc(NC(=O)Nc2nc(N)n(-c3ccc(S(N)(=O)=O)cc3)n2)cc1	inhibition at 0.25 h, 0.01 µM (Carbonic anhydrase 1 [4]): 14%; inhibition at 0.25 h, 0.1 µM (Carbonic anhydrase 1 [5]): 31%; inhibition at 0.25 h, 1 µM (Carbonic anhydrase 1 [6]): 63%; inhibition at 0.25 h, 10 µM (Carbonic anhydrase 1 [7]): 75%; inhibition at 0.25 h, 0.01 µM (Carbonic anhydrase 2 [8]): 15%; inhibition at 0.25 h, 0.1 µM (Carbonic anhydrase 2 [9]): 48%; inhibition at 0.25 h, 1 µM (Carbonic anhydrase 2 [10]): 76%; inhibition at 0.25 h, 10 µM (Carbonic anhydrase 2 [11]): 85%; inhibition (Carbonic anhydrase 9 [12]): 18 to 20%; inhibition (Carbonic anhydrase 9 [13]): 45 to 47%; inhibition (Carbonic anhydrase 9 [14]): 72 to 74%; inhibition (Carbonic anhydrase 9 [15]): 79 to 81%
598	11.1	16.7	Nc1nc(C(=O)NNC(=S)Nc2ccc(Cl)cc2)nn1-c1ccc(S(N)(=O)=O)cc1	–
988	64.2	19.7	Nc1nc(C(=O)N/N=C/c2ccc(N3CCOCC3)cc2)nn1-c1ccc(S(N)(=O)=O)cc1	–
335	8.8	8.3	Nc1nc(C(=O)N/N=C/c2ccc(O)cc2)nn1-c1ccc(S(N)(=O)=O)cc1	–
442	9.8	8.2	Nc1nc(NC(=O)Nc2ccccc2)nn1-c1ccc(S(N)(=O)=O)cc1	–
307	70.5	4.9	Nc1nc(C(=O)NNC(=O)Nc2ccccc2)nn1-c1ccc(S(N)(=O)=O)cc1	–
295	8.5	5.8	C/C(=N\NC(=O)c1nc(N)n(-c2ccc(S(N)(=O)=O)cc2)n1)c1ccncc1	–
–	–	0.7	NS(=O)(=O)c1ccc(-n2nnc(C(=O)N/N=C(/CC(=O)c3ccccn3)C(F)(F)F)c2-c2ccccc2)cc1	–
